Reference: ChEMBL document CHEMBL5537151, “Design, synthesis and bioactivity evaluation of novel fusion peptides and their CPT conjugates inducing effective anti-tumor responses on HER2 positive tumors” (Eur J Med Chem, 2024)
The source made the active and inactive calls. The rule behind the calls is not given here.

What was measured:
[1] = Toxicity in nude mouse xenografted with human SK-BR-3 cells assessed as change in alkaline phosphatase level at 8 umol/kg, iv administered every 3 days for 14 days; assay type: organism-based; details: in vivo, 336 h, dose 8 µmol/kg, time 14 day
SK-BR-3 [2] = test: Induction of apoptosis in human SK-BR-3 cells assessed as downregulation of XIAP protein expression incubated for 24 hrs in presence of SMAC peptide by Western blot analysis; assay type: functional, cell-based
[3] = Toxicity in nude mouse xenografted with human SK-BR-3 cells assessed as increase in creatinine level at 8 umol/kg, iv administered every 3 days for 14 days in presence of SMAC peptide; assay type: organism-based; details: in vivo, 336 h, dose 8 µmol/kg, time 14 day
SK-BR-3 [4] = test: Induction of apoptosis in human SK-BR-3 cells assessed as necrotic cells at 1 uM incubated for 24 hrs by Annexin V-FITC/PI staining based flow cytometry analysis (reference value: 1.49%); assay type: functional
[5] = Toxicity in nude mouse xenografted with human SK-BR-3 cells assessed as increase in ALT level at 8 umol/kg, iv administered every 3 days for 14 days in presence of SMAC peptide; assay type: organism-based; details: in vivo, 336 h, dose 8 µmol/kg, time 14 day
SK-BR-3 [6] = test: Induction of apoptosis in human SK-BR-3 cells assessed as downregulation of cIAP1 protein expression incubated for 24 hrs by Western blot analysis; assay type: functional, cell-based
SK-BR-3 [7] = test: Induction of apoptosis in human SK-BR-3 cells assessed as live cells at 1 uM incubated for 24 hrs in presence of SMAC peptide by Annexin V-FITC/PI staining based flow cytometry analysis (reference value: 94.6%); assay type: functional
[8] = Toxicity in nude mouse xenografted with human SK-BR-3 cells assessed as change in albumin level at 8 umol/kg, iv administered every 3 days for 14 days in presence of SMAC peptide; assay type: organism-based; details: in vivo, 336 h, dose 8 µmol/kg, time 14 day
SK-BR-3 [9] = test: Antitumor activity against human SK-BR-3 cells xenografted in nude mouse assessed as inhibition of tumor growth at 8 umol/kg, iv administered every 3 days for 14 days with SMAC peptide and measured every 2 days by vernier caliper analysis; assay type: functional, organism-based; details: dose 8.0 µmol/kg, time 14.0 day
SK-BR-3 [10] = test: Induction of apoptosis in human SK-BR-3 cells assessed as live cells at 1 uM incubated for 24 hrs by Annexin V-FITC/PI staining based flow cytometry analysis (reference value: 94.6%); assay type: functional
[11] = Toxicity in nude mouse xenografted with human SK-BR-3 cells assessed as increase in ALT level at 8 umol/kg, iv administered every 3 days for 14 days; assay type: organism-based; details: in vivo, 336 h, dose 8 µmol/kg, time 14 day
[12] = Toxicity in nude mouse xenografted with human SK-BR-3 cells assessed as increase in blood urea nitrogen level at 8 umol/kg, iv administered every 3 days for 14 days in presence of SMAC peptide; assay type: organism-based; details: in vivo, 336 h, dose 8 µmol/kg, time 14 day
SK-BR-3 [13] = test: Induction of apoptosis in human SK-BR-3 cells assessed as necrotic cells at 1 uM incubated for 24 hrs in presence of SMAC peptide by Annexin V-FITC/PI staining based flow cytometry analysis (reference value: 1.49%); assay type: functional
[14] = Toxicity in nude mouse xenografted with human SK-BR-3 cells assessed as change in total protein level at 8 umol/kg, iv administered every 3 days for 14 days; assay type: organism-based; details: in vivo, 336 h, dose 8 µmol/kg, time 14 day
[15] = Toxicity in nude mouse xenografted with human SK-BR-3 cells assessed as increase in AST level at 8 umol/kg, iv administered every 3 days for 14 days; assay type: organism-based; details: in vivo, 336 h, dose 8 µmol/kg, time 14 day
[16] = Toxicity in nude mouse xenografted with human SK-BR-3 cells assessed as change in globulin level at 8 umol/kg, iv administered every 3 days for 14 days in presence of SMAC peptide; assay type: organism-based; details: in vivo, 336 h, dose 8 µmol/kg, time 14 day
[17] = Toxicity in nude mouse xenografted with human SK-BR-3 cells assessed as change in alkaline phosphatase level at 8 umol/kg, iv administered every 3 days for 14 days in presence of SMAC peptide; assay type: organism-based; details: in vivo, 336 h, dose 8 µmol/kg, time 14 day
SK-BR-3 [18] = test: Induction of apoptosis in human SK-BR-3 cells assessed as early apoptotic cells at 1 uM incubated for 24 hrs in presence of SMAC peptide by Annexin V-FITC/PI staining based flow cytometry analysis (reference value: 2.80%); assay type: functional
SK-BR-3 [19] = test: Induction of apoptosis in human SK-BR-3 cells assessed as downregulation of XIAP protein expression incubated for 24 hrs by Western blot analysis; assay type: functional, cell-based
[20] = Toxicity in nude mouse xenografted with human SK-BR-3 cells assessed as change in albumin level at 8 umol/kg, iv administered every 3 days for 14 days; assay type: organism-based; details: in vivo, 336 h, dose 8 µmol/kg, time 14 day
[21] = Toxicity in nude mouse xenografted with human SK-BR-3 cells assessed as change in globulin level at 8 umol/kg, iv administered every 3 days for 14 days; assay type: organism-based; details: in vivo, 336 h, dose 8 µmol/kg, time 14 day
SK-BR-3 [22] = test: Induction of apoptosis in human SK-BR-3 cells assessed as late apoptotic cells at 1 uM incubated for 24 hrs by Annexin V-FITC/PI staining based flow cytometry analysis (reference value: 1.11%); assay type: functional
SK-BR-3 [23] = test: Induction of apoptosis in human SK-BR-3 cells assessed as early apoptotic cells at 1 uM incubated for 24 hrs by Annexin V-FITC/PI staining based flow cytometry analysis (reference value: 2.80%); assay type: functional
[24] = Toxicity in nude mouse xenografted with human SK-BR-3 cells assessed as change in total protein level at 8 umol/kg, iv administered every 3 days for 14 days in presence of SMAC peptide; assay type: organism-based; details: in vivo, 336 h, dose 8 µmol/kg, time 14 day
SK-BR-3 [25] = test: Induction of apoptosis in human SK-BR-3 cells assessed as late apoptotic cells at 1 uM incubated for 24 hrs in presence of SMAC peptide by Annexin V-FITC/PI staining based flow cytometry analysis (reference value: 1.11%); assay type: functional
SK-BR-3 [26] = test: Induction of apoptosis in human SK-BR-3 cells assessed as downregulation of cIAP1 protein expression incubated for 24 hrs in presence of SMAC peptide by Western blot analysis; assay type: functional, cell-based
SK-BR-3 [27] = test: Antitumor activity against human SK-BR-3 cells xenografted in nude mouse assessed as inhibition of tumor growth at 8 umol/kg, iv administered every 3 days for 14 days and measured every 2 days by vernier caliper analysis; assay type: functional, organism-based; details: dose 8.0 µmol/kg, time 14.0 day
[28] = Toxicity in nude mouse xenografted with human SK-BR-3 cells assessed as increase in AST level at 8 umol/kg, iv administered every 3 days for 14 days in presence of SMAC peptide; assay type: organism-based; details: in vivo, 336 h, dose 8 µmol/kg, time 14 day

SMILES: CCC1(OC(=O)OCCSSC[C@@H](N)C(=O)N[C@@H](CC(N)=O)C(=O)N2CCC[C@H]2C(=O)N[C@@H](CC(N)=O)C(=O)N[C@@H](Cc2c[nH]c3ccccc23)C(=O)NCC(=O)N[C@@H](CCCNC(=N)N)C(=O)N[C@@H](CO)C(=O)N[C@@H](Cc2c[nH]c3ccccc23)C(=O)N[C@@H](Cc2ccc(O)cc2)C(=O)N[C@@H](CC(N)=O)C(=O)N[C@@H](CCC(N)=O)C(=O)N[C@@H](CCCNC(=N)N)C(=O)N[C@@H](Cc2ccccc2)C(=O)N[C@@H](CCCCN)C(=O)N[C@@H](CCCCN)C(N)=O)C(=O)OCc2c1cc1n(c2=O)Cc2cc3ccccc3nc2-1 (stereo partly drawn)
- Activity [1]: Non-Toxic
- Activity (SK-BR-3 [2]): Active
- Activity [3]: Toxic
- Activity (SK-BR-3 [4]): 1.23%
- Activity [5]: Toxic
- Activity (SK-BR-3 [6]): inactive
- Activity (SK-BR-3 [7]): 74.9%
- Activity [8]: Non-Toxic
- Activity (SK-BR-3 [9]): Active
- Activity (SK-BR-3 [10]): 78.8%
- Activity [11]: Toxic
- Activity [12]: Toxic
- Activity (SK-BR-3 [13]): 1.34%
- Activity [14]: Non-Toxic
- Activity [15]: Toxic
- Activity [16]: Non-Toxic
- Activity [17]: Non-Toxic
- Activity (SK-BR-3 [18]): 16.8%
- Activity (SK-BR-3 [19]): Active
- Activity [20]: Non-Toxic
- Activity [21]: Non-Toxic
- Activity (SK-BR-3 [22]): 4.89%
- Activity (SK-BR-3 [23]): 15.1%
- Activity [24]: Non-Toxic
- Activity (SK-BR-3 [25]): 6.9%
- Activity (SK-BR-3 [26]): inactive
- Activity (SK-BR-3 [27]): Active
- Activity [28]: Toxic
